Data reported in ChEMBL document CHEMBL5046290, “Design, Synthesis, and Preclinical Profiling of GSK3739936 (BMS-986180), an Allosteric Inhibitor of HIV-1 Integrase with Broad-Spectrum Activity toward 124/125 Polymorphs” (J Med Chem, 2022).
pEC50, pIC50: −log10 of the molar value.

Key:
[1] = tested on: Human immunodeficiency virus 1; assay: Antiviral activity against recombinant HIV1 NLRep-Rluc harbouring polymorphic T124/T125 integrase infected in human MT-2 cells assessed as inhibition of virus growth in presence of fetal bovine serum by measuring luciferase activity after 5 days; type: functional, organism-based, MT2
[2] = Cytotoxicity against human MT2 cells assessed as cell viability measured after 4 days by XTT assay; type: toxicity, cell-based; conditions: time 4 day
[3] = Displacement of [3H](S)-2-(tert-butoxy)-2-(2-methyl-4-(p-tolyl)quinolin-3-yl)acetic acid from LEDGF-binding site of recombinant T124/T125 polymorphic HIV1 integrase by LIDIA assay; parameters: species or system Human immunodeficiency virus 1
[4] = Metabolic stability in rat liver microsome assessed half life at 0.5 uM by LC-MS/MS analysis; type: ADME; conditions: liver microsomes
[5] = Clearance in Sprague-Dawley rat at 1 mg/kg, iv by LC-MS/MS analysis; type: ADME, organism-based; conditions: in vivo
[6] = Metabolic stability in human liver microsome assessed half life at 0.5 uM by LC-MS/MS analysis; type: ADME; conditions: liver microsomes
[7] = Human immunodeficiency virus 1, NLRep, MT2, 120 h

Structure (SMILES)	pEC50 [1, 7]	CC50 at 96 h [2] [nM]	pIC50 [3]	half-life at 0.5 µM [4] [h]	clearance [5] [mL/min/kg]	half-life at 0.5 µM [6] [h]	pEC50 ([1]; mt2)
Cc1nc(C)c([C@H](OC(C)(C)C)C(=O)O)c(N2CCC(C)(C)CC2)c1-c1ccc(Cc2ccccc2)cc1	7.91	≥ 20000	7.87				
COc1ccc(CCOc2ccc(-c3c(C)nc(C)c([C@H](OC(C)(C)C)C(=O)O)c3N3CCC(C)(C)CC3)cc2)cc1	8.41	≥ 33500	7.88	> 2	13.4	> 2	
Cc1nc(C)c([C@H](OC(C)(C)C)C(=O)O)c(N2CCC(C)(C)CC2)c1-c1ccc(OCCc2ccc(F)cc2F)cc1	8.44	≥ 33500	7.94	> 2	9	1.08	
Cc1ccc(CCOc2ccc(-c3c(C)nc(C)c([C@H](OC(C)(C)C)C(=O)O)c3N3CCC(C)(C)CC3)cc2)cc1	7.83	≥ 33500	7.81				
Cc1nc(C)c([C@H](OC(C)(C)C)C(=O)O)c(N2CCC(C)(C)CC2)c1-c1ccc(NCCc2ccc(F)cc2)cc1	8.27	≥ 32000	7.74	1.83	12	0.683	
Cc1noc(C)c1CCOc1ccc(-c2c(C)nc(C)c([C@H](OC(C)(C)C)C(=O)O)c2N2CCC(C)(C)CC2)cc1	8.82	≥ 25000	7.94	1.32	58.9	0.467	
Cc1nc(C)c([C@H](OC(C)(C)C)C(=O)O)c(N2CCC(C)(C)CC2)c1-c1ccc(SCCc2ccc(F)cc2)cc1	7.81	≥ 32000	7.01	> 2		> 2	
Cc1nc(C)c([C@H](OC(C)(C)C)C(=O)O)c(N2CCC(C)(C)CC2)c1-c1ccc(Oc2ccccc2)cc1	7.43	≥ 20000	7.27				
Cc1nc(C)c([C@H](OC(C)(C)C)C(=O)O)c(N2CCC(C)(C)CC2)c1-c1ccccc1	7.17		7.26				
Cc1nc(C)c([C@H](OC(C)(C)C)C(=O)O)c(N2CCC(C)(C)CC2)c1-c1ccc(OCCc2ccncc2)cc1	9.22	≥ 25000					
Cc1nc(C)c([C@H](OC(C)(C)C)C(=O)O)c(N2CCC(C)(C)CC2)c1-c1ccc(OCCc2ccc(Cl)cc2)cc1	7.92	≥ 33500	7.52				
COc1cccc(CCOc2ccc(-c3c(C)nc(C)c([C@H](OC(C)(C)C)C(=O)O)c3N3CCC(C)(C)CC3)cc2)c1	8.77	≥ 33500	7.80	> 2		> 2	
Cc1nc(C)c([C@H](OC(C)(C)C)C(=O)O)c(N2CCC(C)(C)CC2)c1-c1ccc(OCCCc2ccc(F)cc2)cc1	7.92	≥ 32000	7.45	> 2		> 2	
Cc1nc(C)c([C@H](OC(C)(C)C)C(=O)O)c(N2CCC(C)(C)CC2)c1-c1ccc(OCCc2ccccn2)cc1	9.05	≥ 25000	7.78	1.02		0.5	
Cc1cc(CCOc2ccc(-c3c(C)nc(C)c([C@H](OC(C)(C)C)C(=O)O)c3N3CCC(C)(C)CC3)cc2)ccc1F	8.32	≥ 33500	7.68	> 2	7.8	> 2	
Cc1nc(CCOc2ccc(-c3c(C)nc(C)c([C@H](OC(C)(C)C)C(=O)O)c3N3CCC(C)(C)CC3)cc2)cs1	8.30	≥ 25000	7.49	1.75		0.683	
Cc1ccc(CCOc2ccc(-c3c(C)nc(C)c([C@H](OC(C)(C)C)C(=O)O)c3N3CCC(C)(C)CC3)cc2)s1	8.36	≥ 25000	7.31	> 2		> 2	
Cc1nc(C)c([C@H](OC(C)(C)C)C(=O)O)c(N2CCC(C)(C)CC2)c1-c1ccc(OCCc2cc(F)c(F)cc2F)cc1	8.48	≥ 33500	7.74	> 2	8.1	> 2	
Cc1nc(C)c(CCOc2ccc(-c3c(C)nc(C)c([C@H](OC(C)(C)C)C(=O)O)c3N3CCC(C)(C)CC3)cc2)s1	8.96	≥ 25000	7.93	> 2	30.1	0.917	
Cc1nc(C)c([C@H](OC(C)(C)C)C(=O)O)c(N2CCC(C)(C)CC2)c1-c1ccc(-c2ccccc2)cc1	7.51	≥ 20000	7.51				
Cc1nc(C)c([C@H](OC(C)(C)C)C(=O)O)c(N2CCC(C)(C)CC2)c1-c1ccc(OCCc2ccccc2)cc1	8.64	≥ 20000	8.03	> 2		> 2	
Cc1nc(C)c([C@H](OC(C)(C)C)C(=O)O)c(N2CCC(C)(C)CC2)c1-c1ccc(CCCc2ccc(F)cc2)cc1	7.65	≥ 32000	7.13	> 2		> 2	
Cc1nc(C)c([C@H](OC(C)(C)C)C(=O)O)c(N2CCC(C)(C)CC2)c1-c1ccc(OCc2ccccc2)cc1	7.95	≥ 20000	7.52				
Cc1nc(C)c([C@H](OC(C)(C)C)C(=O)O)c(N2CCC(C)(C)CC2)c1-c1ccc(OCCc2cc(F)ccc2F)cc1	8.55	≥ 33500	7.83		18.7		
Cc1nc(C)c([C@H](OC(C)(C)C)C(=O)O)c(N2CCC(C)(C)CC2)c1-c1ccc(OCCc2cccnc2)cc1	8.89	≥ 25000	7.71	0.783		0.367	
CCc1cccc(CC)c1-c1cc(-c2ccc3c4c(ccnc24)CCO3)c(C(OC(C)(C)C)C(=O)O)c(C)n1 (racemic)	6.72		4.00				
Cc1nc(C)c([C@H](OC(C)(C)C)C(=O)O)c(N2CCC(C)(C)CC2)c1-c1ccc(OC2CCCC2c2ccc(F)cc2)cc1 (stereo in doubt; 39a)		≥ 32000	7.45				7.92
Cc1nc(C)c([C@H](OC(C)(C)C)C(=O)O)c(N2CCC(C)(C)CC2)c1-c1ccc(OC2CCCC2c2ccc(F)cc2)cc1 (stereo in doubt; 39b)			7.75				8.30
Cc1nc(C)c([C@H](OC(C)(C)C)C(=O)O)c(N2CCC(C)(C)CC2)c1-c1ccc(OC2COCC2c2ccc(F)cc2)cc1 (stereo in doubt; 40a)		≥ 32000	8.31				8.70
